Measurements reported in US20060046966A1, “Antipicornaviral compounds and compositions, their pharmaceutical uses, and materials for their synthesis” (Agouron Pharmaceuticals, Inc., priority 1998, published 2006).
Where two headings read alike, the source gives them in different places.

Experiments:
[1] = molecular target: T1, rhinovirus 3C protease from HRV serotype-14 (Human rhinovirus 14, UniProt P03303); test: Inhibition of rhinovirus 3C protease (FRET assay), serotype 14; type: biochemical; details: HRV serotype-14 3C protease; progress curves in enzyme start experiments; read-out: Protease Inhibition kobs/[I]
T1 construct: Recombinant rhinovirus 3C proteases; made in house
T1 sequence (P03303 1538-1719): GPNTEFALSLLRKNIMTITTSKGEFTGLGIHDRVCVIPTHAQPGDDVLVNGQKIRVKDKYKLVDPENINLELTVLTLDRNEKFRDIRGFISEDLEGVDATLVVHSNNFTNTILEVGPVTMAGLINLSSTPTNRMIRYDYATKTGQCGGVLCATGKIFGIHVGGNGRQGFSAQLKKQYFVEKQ
Protocol: (§1) Stock solutions (50 mM, in DMSO) of various compounds were prepared; dilutions were in the same solvent. Recombinant rhinovirus 3C proteases (see Birch et al., “Purification of recombinant human rhinovirus 14 3C protease expressed in Escherichia coli,” Protein Expr. Pur. 1995, 6(5), 609-618) from serotypes 14, 16, and 2 were prepared by the following standard chromatographic procedures: (1) ion exchange using Q Sepharose Fast Flow from Pharmacia; (2) affinity chromatography using Affi-Gel Blue from Biorad; and (3) sizing using Sephadex G-100 from Pharmacia. Each assay sample contained 2% DMSO, 50 mM tris pH 7.6, 1 mM EDTA, a test compound at the indicated concentration, approximately 1 μM substrate, and 50-100 nM protease. The kobs/I values were obtained from reactions initiated by addition of enzyme rather than substrate. RVP activity was measured in the fluorescence resonance energy transfer assay. The substrate was (N-terminal) DABCYL-(Gly-Arg-Ala-Val-Phe-Gln-Gly-Pro-Val-Gly)-EDANS. In the uncleaved peptide, the EDANS fluorescence was quenched by the proximal DABCYL moiety. When the peptide was cleaved, the quenching was relieved, and activity was measured as an increase in fluorescence signal. In Table 1, all data are for rhinovirus 3C protease from HRV serotype-14 (produced from the infectious cDNA clone constructed by Dr. Robert Rueckert, Institute for Molecular Virology, University of Wisconsin, Madison, Wis.). […] The data in the column designated kobs/[I] were measured from progress curves in enzyme start experiments.

[2] = molecular target: T2, rhinovirus 3C protease, serotype 16 (Human rhinovirus 16, UniProt Q82122); test: Inhibition of rhinovirus 3C protease (FRET assay), serotype 16; type: biochemical; details: Rhinovirus Serotype (16) 3C protease; read-out: kobs/I
T2 construct: Recombinant rhinovirus 3C proteases; made in house
T2 sequence (Q82122 1511-1693): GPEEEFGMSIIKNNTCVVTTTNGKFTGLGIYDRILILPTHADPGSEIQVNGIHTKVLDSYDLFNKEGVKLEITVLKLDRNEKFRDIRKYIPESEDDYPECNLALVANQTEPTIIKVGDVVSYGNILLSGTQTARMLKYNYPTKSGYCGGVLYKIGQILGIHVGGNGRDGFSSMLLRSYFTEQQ
Protocol: Stock solutions (50 mM, in DMSO) of various compounds were prepared; dilutions were in the same solvent. Recombinant rhinovirus 3C proteases (see Birch et al., “Purification of recombinant human rhinovirus 14 3C protease expressed in Escherichia coli,” Protein Expr. Pur. 1995, 6(5), 609-618) from serotypes 14, 16, and 2 were prepared by the following standard chromatographic procedures: (1) ion exchange using Q Sepharose Fast Flow from Pharmacia; (2) affinity chromatography using Affi-Gel Blue from Biorad; and (3) sizing using Sephadex G-100 from Pharmacia. Each assay sample contained 2% DMSO, 50 mM tris pH 7.6, 1 mM EDTA, a test compound at the indicated concentration, approximately 1 μM substrate, and 50-100 nM protease. The kobs/I values were obtained from reactions initiated by addition of enzyme rather than substrate. RVP activity was measured in the fluorescence resonance energy transfer assay. The substrate was (N-terminal) DABCYL-(Gly-Arg-Ala-Val-Phe-Gln-Gly-Pro-Val-Gly)-EDANS. In the uncleaved peptide, the EDANS fluorescence was quenched by the proximal DABCYL moiety. When the peptide was cleaved, the quenching was relieved, and activity was measured as an increase in fluorescence signal. […] The data in the column designated kobs/[I] were measured from progress curves in enzyme start experiments.

[3] = molecular target: T3, rhinovirus 3C protease, serotype 89 (Human rhinovirus A serotype 89, UniProt P07210); test: Inhibition of rhinovirus 3C protease (FRET assay), serotype 89; type: biochemical; details: Rhinovirus Serotype (89) 3C protease; read-out: kobs/I
T3 construct: Recombinant rhinovirus 3C proteases
T3 sequence (P07210 1522-1704): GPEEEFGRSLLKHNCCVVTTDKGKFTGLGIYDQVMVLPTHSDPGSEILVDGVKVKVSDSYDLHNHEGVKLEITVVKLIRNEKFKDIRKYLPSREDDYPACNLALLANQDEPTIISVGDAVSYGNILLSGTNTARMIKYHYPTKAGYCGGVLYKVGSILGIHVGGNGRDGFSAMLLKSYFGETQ

[4] = molecular target: T4, rhinovirus 3C protease, serotype 2 (Human rhinovirus 2, UniProt P04936); test: Inhibition of rhinovirus 3C protease (FRET assay), serotype 2; type: biochemical; details: Rhinovirus Serotype (2) 3C protease; read-out: kobs/I
T4 construct: Recombinant rhinovirus 3C proteases; made in house
T4 sequence (P04936 1508-1690): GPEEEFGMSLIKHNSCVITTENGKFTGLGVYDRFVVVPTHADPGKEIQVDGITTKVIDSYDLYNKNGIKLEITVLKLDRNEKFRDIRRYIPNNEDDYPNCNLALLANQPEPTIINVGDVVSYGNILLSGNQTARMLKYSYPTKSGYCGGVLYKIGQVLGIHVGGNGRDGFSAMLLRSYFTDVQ
Protocol: as §1

HRV-14 = test: Antirhinoviral H1-HeLa cell culture assay, HRV-14; type: cell-based, human rhinovirus; details: Rhinovirus B, HRV14, H1-HeLa, HRV serotype-14, H1-HeLa cells
Protocol: (§2) In this cell protection assay, the ability of compounds to protect cells against HRV infection was measured by the XTT dye reduction method, which is described in Weislow et al., J. Natl. Cancer Inst. 1989, vol. 81, 577-586.
(§3) H1-HeLa cells were infected with HRV-14 at a multiplicity of infection (m.o.i.) of 0.13 (virus particles/cell) or mock-infected with medium only. Infected or mock-infected cells were resuspended at 8×10^5 cells per mL, and incubated with appropriate concentrations of the compounds to be tested. Two days later, XTT/PMS was added to test plates and the amount of formazan produced was quantified spectrophotometrically at 450/650 nm. The EC50 value was calculated as the concentration of compound that increased the percentage of formazan production in compound-treated, virus-infected cells to 50% of that produced by compound-free, mock-infected cells. The 50% cytotoxic dose (CC50) was calculated as the concentration of compound that decreased the percentage of formazan produced in compound-treated, mock-infected cells to 50% of that produced by compound-free, mock-infected cells. The therapeutic index (TI) was calculated by dividing the CC50 value by the EC50 value.
(§4) All strains of human rhinovirus (HRV) for use in this assay were purchased from American Type Culture Collection (ATCC), except for HRV serotype-14 (produced from the infectious cDNA clone constructed by Dr. Robert Rueckert, Institute for Molecular Virology, University of Wisconsin, Madison, Wis.). HRV stocks were propagated and viral assays were performed in H1-HeLa cells (ATCC). Cells were grown in minimal essential medium with 10% fetal bovine serum, available from Life Technologies (Gaithersburg, Md.).
(§5) The compounds were tested against control compounds WIN 51711, WIN 52084, and WIN 54954 (obtained from Sterling-Winthrop Pharmaceuticals), Pirodavir (obtained from Janssen Pharmaceuticals), and Pleconaril (prepared according to the method described in Diana et al., J. Med. Chem 1995, vol. 38, 1355). Antiviral data obtained for the test compounds are shown in Tables 1 and 3, where all data are for HRV serotype-14 unless otherwise noted in parentheses.

HRV (89) = test: Antirhinoviral H1-HeLa cell culture assay, HRV serotype 89; type: cell-based, human rhinovirus; details: Human rhinovirus sp., H1-HeLa cells, XTT
Protocol: as §2, §3, §4, §5

HRV (16) = test: Antirhinoviral H1-HeLa cell culture assay, HRV serotype 16; type: cell-based; details: Human rhinovirus sp., H1-HeLa cells, XTT
Protocol: as §2, §3, §4
The compounds were tested against control compounds WIN 51711, WIN 52084, and WIN 54954 (obtained from Sterling-Winthrop Pharmaceuticals), Pirodavir (obtained from Janssen Pharmaceuticals), and Pleconaril (prepared according to the method described in Diana et al., J. Med. Chem 1995, vol. 38, 1355). […]

HRV (10) = test: Antirhinoviral H1-HeLa cell culture assay, HRV serotype 10; type: cell-based, human rhinovirus; details: Human rhinovirus sp., H1-HeLa, H1-HeLa cells, XTT
Protocol: as §2, §3, §4, §5

[5] = tested on: Coxsackievirus type A-21 (CAV-21); test: Anticoxsackieviral cell culture assay, CAV-21; type: cell-based; details: 48 h, Strain CAV-21, H1-HeLa cells, two days, XTT, read-out: EC50
Protocol: (§6) Coxsackievirus types A-21 (CAV-21) and B3 (CVB-3) were purchased from American Type Culture Collection (ATCC, Rockville, Md.). Virus stocks were propagated and antiviral assays were performed in H1-HeLa cells (ATCC). Cells were grown in minimal essential medium with 10% fetal bovine serum (Life Technologies, Gaithersburg, Md.).
(§7) The ability of compounds to protect cells against either CAV-21 or CVB-3 infection was measured by the XTT dye reduction method. This method is described in Weislow et al., J. Natl. Cancer Inst. 1989, vol. 81, 577-586. H1-HeLa cells were infected with CAV-21 or CVB-3 at a multiplicity of infection (m.o.i.) of 0.025 or 0.075, respectively, or mock-infected with medium only. H1-HeLa cells were plated at 4×10^4 cells per well in a 96-well plate and incubated with appropriate concentrations of the test compound. One day (CVB-3) or two days (CAV-21) later, XTT/PMS was added to test plates and the amount of formazan produced was quantified spectrophotometrically at 450/650 nm. The EC50 was calculated as the concentration of compound that increased the formazan production in compound-treated, virus-infected cells to 50% of that produced by compound-free, uninfected cells. The 50% cytotoxic dose (CC50) was calculated as the concentration of compound that decreased formazan production in compound-treated, uninfected cells to 50% of that produced in compound-free, uninfected cells. The therapeutic index TI) was calculated by dividing the CC50 by the EC50.
(§8) The compounds were tested against control compounds WIN 54954 (obtained from Sterling-Winthrop Pharmaceuticals), Pirodavir (obtained from Janssen Pharmaceuticals), and Pleconaril (prepared according to Diana et al., J. Med. Chem. 1995, 38, 1355).

[6] = tested on: Coxsackievirus type B3 (CVB-3); test: Anticoxsackieviral cell culture assay, CVB-3; type: cell-based; details: 24 h, Strain CVB-3, H1-HeLa cells, one day, XTT, read-out: EC50
Protocol: as §6, §7, §8

[7] = tested on: Echovirus type 11 (EV 11); test: Anti-echoviral cell culture assay, EV 11; type: cell-based; details: Enterovirus B, MRC5, 96 h; Strain EV-11; MRC-5 cells; four days; XTT; read-out: EC50
Protocol: (§9) Echovirus type 11 (EV 11) and enterovirus type 70 (EV 70) were purchased from ATCC (Rockville, Md.). Virus stocks were propagated and antiviral assays were performed in MRC-5 cells (ATCC). Cells were grown in minimal essential medium with 10% fetal bovine serum (Life Technologies, Gaithersburg, Md.).
(§10) The ability of compounds to protect cells against either EV 11 or EV 70 infection was measured by the XTT dye reduction method (Weislow et al., J. Natl. Cancer Inst. 1989, vol. 81, 577-586). MRC-5 cells were infected with EV 11 or EV 70 at an m.o.i. of 0.003 or 0.004, respectively, or mock-infected with medium only. Infected or uninfected cells were added at 1×10^4 cells per well and incubated with appropriate concentrations of compound. Four days later, XTT/PMS was added to test plates, and the amount of formazan produced was quantified spectrophotometrically at 450/650 nm. The EC50 was calculated as the concentration of compound that increased the formazan production in compound-treated, virus-infected cells to 50% of that produced by compound-free, uninfected cells. The 50% cytotoxic dose (CC50) was calculated as the concentration of compound that decreased formazan production in compound-treated, uninfected cells to 50% of that produced in compound-free, uninfected cells. The therapeutic index (TI) was calculated by dividing the CC50 by the EC50.
The compounds were tested against control compounds Pirodavir (obtained from Janssen Pharmaceuticals) and Pleconaril (prepared according to Diana et al., J. Med. Chem. 1995, vol. 38, 1355). Antiviral data obtained for the test compounds against strain EV 11 and EV 70 are shown below in Table 5.

[8] = tested on: enterovirus type 70 (EV 70); test: Anti-enteroviral cell culture assay, EV 70; type: cell-based; details: Enterovirus D, MRC5, 96 h; Strain EV-70; MRC-5 cells; four days; XTT
Protocol: as §9
as §10, with “EC50. […]” for “EC50.”

SMILES | kinact/KI [1] [M⁻¹ s⁻¹] | kinact/KI [2] [M⁻¹ s⁻¹] | kinact/KI [3] [M⁻¹ s⁻¹] | kinact/KI [4] [M⁻¹ s⁻¹] | EC50 (HRV-14; Table 1, XTT dye reduction, read-out: Cell Protection EC50) [µM] | EC50 (HRV-14; Table 3, XTT, read-out: EC50) [µM] | EC50 (HRV (89)) [µM] | EC50 (HRV (16)) [µM] | EC50 (HRV (10)) [µM] | EC50 [5] [µM] | EC50 [6] [µM] | EC50 [7] [µM] | EC50 [8] [µM]
CCOC(=O)/C=C/[C@H](CCC(N)=O)NC(=O)[C@H](Cc1ccccc1)NC(=O)[C@H](CC(C)C)NC(=O)OCc1ccccc1 [Comparison Compound #2, Ethyl-3-(Cbz-L-Leu-L-Phe-L-Gln)-E-Propenoate, reference compound] | 25000 | 6500 | 3400 | 2000 | 0.61 | 0.61 | 6.3 | 2.3 | 0.6 |  |  |  | 
CCOC(=O)c1ccc(OCCC2CCN(c3ccc(C)nn3)CC2)cc1 [Pirodavir, reference compound] |  |  |  |  |  | 0.03 |  |  |  | > 100 | > 100 | 3.7 | 0.06
